Test results as given in article PMC4384708, “Molecular imaging of angiogenesis after myocardial infarction by ^111In-DTPA-cNGR and ^99mTc-sestamibi dual-isotope myocardial SPECT” (EJNMMI Research, 2015).

Legend:
[1] = ^99mTc-sestamibi perfusion uptake (SUV) per AHA 17 segment, in vivo dual-isotope micro-SPECT; set-up: species or system Swiss mice
Protocol: MI was induced in 10- to 12-week old male Swiss mice by ligation of the left anterior descending coronary artery (LAD) (n = 7), as previously described. The angiogenesis imaging protocol was performed 7 days after the LAD ligation. A group of non-operated male Swiss mice (n = 5) was used as control. A variable number of animals were available for analysis per experiment. For SPECT scans, seven MI mice and five control mice were used while for biodistribution purposes ≥5 MI mice and ≥4 control mice were used. Furthermore, a group of six 10- to 12-week old male Swiss mice were bilaterally, subcutaneously implanted in the flanks with Matrigel (Table 1). […] All animals were held under the guidelines of the animal care facility (Maastricht University). All animal experiments were approved by the Committee for Animal Welfare of Maastricht University.
Mice were anesthetised with isoflurane (induction 2.5%; maintenance; 1.5%), a catheter was placed in the tail vein and the animals were positioned in the micro-SPECT camera (MiLabs, Utrecht, The Netherlands).
U-SPECT-II reconstruction software version 2.38 (MiLabs, Utrecht, The Netherlands) was used to reconstruct images. ^99mTc and ^111In images were reconstructed by selecting the photopeak (PP) and background (BG) windows as indicated in Figure 1.
To allow quantification of radiotracer uptake in vivo, conversion factors (CFs) were determined for the 0.6-mm collimator system in a representative phantom (20 ml) for ^99mTc and/or ^111In. During the SPECT reconstruction, the total amount of counts was distributed over the different voxels, resulting in a counts/voxel expression for the average concentration of counts. Taking into account the voxel volume (Vv), the CFs are calculated using equation (a):a ConversionfactorMBq=ActivityconcentrationMBq/ml/SPECTcountspervoxel/Vvml
The PMOD 2.95 cardiac tool PCARD (PMOD Technologies, Zürich, Switzerland) was used to segment the heart in the 17-segment model according to the American Heart Association (AHA) guidelines. For both the ^99mTc-sestamibi and ^111In-DTPA-cNGR images, the uptake was measured for each segment and expressed as mean standardised uptake value (SUVmean) using equation (b).b SUV=SPECTcountspervoxel×CF/VvMBq/ml×Bodyweightg/InjecteddoseMBq
For body weight, we assumed that 1 g of body weight equalled 1 ml.

CD13 = conditions: cNGR tripeptide vs. linear entity; cited from earlier work
Text: In this study, we designed and developed a CD13 molecular imaging probe that allowed sensitive visualisation using micro-SPECT imaging. […] Thereto, the cNGR tripeptide was conjugated with diethylene triamine pentaacetic acid (DTPA), radiolabeled with ^111In and evaluated in a mouse model of myocardial infarction in combination with ^99mTc-sestamibi in dual-isotope micro-SPECT imaging. In order to determine binding spec ...

## [C-]#[N+]CC(C)(C)OC.[C-]#[N+]CC(C)(C)OC.[C-]#[N+]CC(C)(C)OC.[C-]#[N+]CC(C)(C)OC.[C-]#[N+]CC(C)(C)OC.[C-]#[N+]CC(C)(C)OC.[Tc] [^99mTc-sestamibi]
[1]; segment 1. Basal anterior, MI mice n = 7, 7 days after LAD ligation, mean ± S.E.M.
  SUV: 1.94 ± 0.36
[1]; segment 1. Basal anterior, healthy control mice n = 5, mean ± S.E.M.
  SUV: 1.87 ± 0.34
[1]; segment 2. Basal anteroseptal, MI mice n = 7, 7 days after LAD ligation, mean ± S.E.M.
  SUV: 1.72 ± 0.33
[1]; segment 2. Basal anteroseptal, healthy control mice n = 5, mean ± S.E.M.
  SUV: 1.63 ± 0.28
[1]; segment 3. Basal inferoseptal, MI mice n = 7, 7 days after LAD ligation, mean ± S.E.M.
  SUV: 1.38 ± 0.28
[1]; segment 3. Basal inferoseptal, healthy control mice n = 5, mean ± S.E.M.
  SUV: 1.54 ± 0.29
[1]; segment 4. Basal inferior, MI mice n = 7, 7 days after LAD ligation, mean ± S.E.M.
  SUV: 1.64 ± 0.24
[1]; segment 4. Basal inferior, healthy control mice n = 5, mean ± S.E.M.
  SUV: 1.77 ± 0.28
[1]; segment 5. Basal inferolateral, MI mice n = 7, 7 days after LAD ligation, mean ± S.E.M.
  SUV: 1.78 ± 0.31
[1]; segment 5. Basal inferolateral, healthy control mice n = 5, mean ± S.E.M.
  SUV: 1.68 ± 0.30
[1]; segment 6. Basal anterolateral, MI mice n = 7, 7 days after LAD ligation, mean ± S.E.M.
  SUV: 2.11 ± 0.39
[1]; segment 6. Basal anterolateral, healthy control mice n = 5, mean ± S.E.M.
  SUV: 1.95 ± 0.33
[1]; segment 7. Mid anterior, MI mice n = 7, 7 days after LAD ligation, mean ± S.E.M.
  SUV: 1.18 ± 0.26
[1]; segment 7. Mid anterior, healthy control mice n = 5, mean ± S.E.M.
  SUV: 1.80 ± 0.30
[1]; segment 8. Mid anteroseptal, MI mice n = 7, 7 days after LAD ligation, mean ± S.E.M.
  SUV: 1.73 ± 0.27
[1]; segment 8. Mid anteroseptal, healthy control mice n = 5, mean ± S.E.M.
  SUV: 1.67 ± 0.28
[1]; segment 9. Mid inferoseptal, MI mice n = 7, 7 days after LAD ligation, mean ± S.E.M.
  SUV: 1.82 ± 0.30
[1]; segment 9. Mid inferoseptal, healthy control mice n = 5, mean ± S.E.M.
  SUV: 1.80 ± 0.34
[1]; segment 10. Mid inferior, MI mice n = 7, 7 days after LAD ligation, mean ± S.E.M.
  SUV: 1.85 ± 0.31
[1]; segment 10. Mid inferior, healthy control mice n = 5, mean ± S.E.M.
  SUV: 1.72 ± 0.28
[1]; segment 11. Mid inferolateral, MI mice n = 7, 7 days after LAD ligation, mean ± S.E.M.
  SUV: 1.60 ± 0.32
[1]; segment 11. Mid inferolateral, healthy control mice n = 5, mean ± S.E.M.
  SUV: 1.71 ± 0.25
[1]; segment 12. Mid anterolateral, MI mice n = 7, 7 days after LAD ligation, mean ± S.E.M.
  SUV: 1.15 ± 0.37
[1]; segment 12. Mid anterolateral, healthy control mice n = 5, mean ± S.E.M.
  SUV: 2.03 ± 0.32
[1]; segment 13. Apical anterior, MI mice n = 7, 7 days after LAD ligation, mean ± S.E.M.
  SUV: 0.49 ± 0.10
[1]; segment 13. Apical anterior, healthy control mice n = 5, mean ± S.E.M.
  SUV: 1.64 ± 0.30
[1]; segment 14. Apical septal, MI mice n = 7, 7 days after LAD ligation, mean ± S.E.M.
  SUV: 1.55 ± 0.25
[1]; segment 14. Apical septal, healthy control mice n = 5, mean ± S.E.M.
  SUV: 1.82 ± 0.34
[1]; segment 15. Apical inferior, MI mice n = 7, 7 days after LAD ligation, mean ± S.E.M.
  SUV: 1.36 ± 0.35
[1]; segment 15. Apical inferior, healthy control mice n = 5, mean ± S.E.M.
  SUV: 1.67 ± 0.28
[1]; segment 16. Apical lateral, MI mice n = 7, 7 days after LAD ligation, mean ± S.E.M.
  SUV: 0.64 ± 0.24
[1]; segment 16. Apical lateral, healthy control mice n = 5, mean ± S.E.M.
  SUV: 1.60 ± 0.30
[1]; segment 17. Apex, MI mice n = 7, 7 days after LAD ligation, mean ± S.E.M.
  SUV: 0.39 ± 0.17
[1]; segment 17. Apex, healthy control mice n = 5, mean ± S.E.M.
  SUV: 1.47 ± 0.34

## oxidised NAc-Cys-Asn-Gly-Arg-Cys-Gly-Gly-Lys-NH2 (disulfide) [cNGR, cyclic(NAc-Cys-Asn-Gly-Arg-Cys-Gly-Gly-Lys), disulfide-cyclised CD13-homing peptide]
CD13
  targeting efficacy relative to the linear entity: tenfold higher
